Values quoted from earlier work in US10945989B2, “Perinatal treatment with a flavonoid agonist of the TrkB receptor for BDNF rescues neurogenesis and behavior in the Ts65Dn mouse model of DS” (ALMA MATER STUDIORUM—Universita' di Bologna, priority 2017, dated 2021).

System: Ts65Dn mouse model of DS
Details: perinatal treatment, Bianchi et al., 2010b; Guidi et al., 2014; cited from earlier work

Structure (SMILES): CNCCC(Oc1ccc(C(F)(F)F)cc1)c1ccccc1 (stereo not shown) [fluoxetine]
- brain development and cognitive performance: fully restores brain development and cognitive performance
